This assay has as its system L1210 leukemia ip in BDF1 mice, survival T/C. Description: NCI In Vivo Anticancer Drug Screen. Data for tumor model L1210 Leukemia (intraperitoneal) in B6D2F1 (BDF1) mice. The note with it: endpoint: mean survival time, higher = longer survival. The essentials:
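Read-out is survival time, reported as the treated-group measurement over the vehicle-control measurement.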

Setting [1] is: dose: 100.0 mg/kg/injection, schedule: Q01DX009 (ip), vehicle: saline with Tween-80.
Where [2] appears, read: dose: 100.0 mg/kg/injection, schedule: Q04DX003 (ip), vehicle: saline with Tween-80.
Where [3] appears, read: dose: 200.0 mg/kg/injection, schedule: Q04DX003 (ip), vehicle: saline with Tween-80.
[4] abbreviates: dose: 400.0 mg/kg/injection, schedule: Q04DX003 (ip), vehicle: saline with Tween-80.
Where [5] appears, read: dose: 200.0 mg/kg/injection, schedule: Q01DX001 (ip), vehicle: carboxymethylcellulose (CMC).
Setting [6] is: dose: 20.0 mg/kg/injection, schedule: Q01DX001 (ip), vehicle: Klucel (hydroxypropylcellulose) (HPC).

SMILES strings stand for the structures. Values joined by “and” are separate entries in the source; they are usually repeats but may differ in a detail not shown here. Equal entries are not always repeated. Toxic doses and inconclusive results are not listed.

In the case of `CC1=NN(c2ccccc2)C(=O)C1N=Nc1ccc([As](=O)(O)O)c(O)c1` (stereo not drawn), the T/C is, setting by setting: (dose: 100.0 mg/kg/injection, schedule: Q01DX001 (ip), vehicle: saline) 96 % of control; (dose: 200.0 mg/kg/injection, schedule: Q01DX001 (ip), vehicle: saline) 102 % of control; (dose: 400.0 mg/kg/injection, schedule: Q01DX001 (ip), vehicle: saline) 100 % of control.
In the case of `O=C(NO)c1cc(Br)cc(Br)c1O`, the T/C is 98 % of control (dose: 25.0 mg/kg/injection, schedule: Q01DX009 (ip), vehicle: saline with Tween-80); 102 % of control (dose: 50.0 mg/kg/injection, schedule: Q01DX009 (ip), vehicle: saline with Tween-80); 100 % of control under setting [1]; 93 % of control (dose: 100.0 mg/kg/injection, schedule: Q04DX002 (ip), vehicle: saline with Tween-80); 97 % of control (dose: 200.0 mg/kg/injection, schedule: Q04DX002 (ip), vehicle: saline with Tween-80); 200 % of control (dose: 400.0 mg/kg/injection, schedule: Q04DX002 (ip), vehicle: saline with Tween-80).
For the molecule `CCOc1ccc(Br)cc1/C=C/C(C)=O`, the T/C by setting is: (dose: 100.0 mg/kg/injection, schedule: Q01DX009 (ip), vehicle: saline) 103 % of control; (dose: 100.0 mg/kg/injection, schedule: Q04DX003 (ip), vehicle: saline) 95 % of control; (dose: 200.0 mg/kg/injection, schedule: Q01DX009 (ip), vehicle: saline) 98 % of control; (dose: 200.0 mg/kg/injection, schedule: Q04DX003 (ip), vehicle: saline) 111 % of control; (dose: 400.0 mg/kg/injection, schedule: Q01DX009 (ip), vehicle: saline) 90 % of control; (dose: 400.0 mg/kg/injection, schedule: Q04DX003 (ip), vehicle: saline) 97 % of control.
With `CCCCCCCCCCCCCCCC(=O)N(CCCN)CCCCN(CCCN)C(=O)CCCCCCCCCCCCCCC`, the T/C is, setting by setting: (dose: 100.0 mg/kg/injection, schedule: Q01DX001 (ip), vehicle: saline with Tween-80) 100 % of control; under setting [1], 103 % of control; under setting [2], 110 % of control; (dose: 200.0 mg/kg/injection, schedule: Q01DX001 (ip), vehicle: saline with Tween-80) 96 % of control; (dose: 200.0 mg/kg/injection, schedule: Q01DX009 (ip), vehicle: saline with Tween-80) 96 % of control; under setting [3], 107 % of control. The T/C was 104 % of control (dose: 400.0 mg/kg/injection, schedule: Q01DX001 (ip), vehicle: saline with Tween-80); 96 % of control (dose: 400.0 mg/kg/injection, schedule: Q01DX009 (ip), vehicle: saline with Tween-80); 111 % of control under setting [4].
In the case of `CC(=O)Nc1ccc(C(=O)O)cc1[N+](=O)[O-]`, the T/C is, setting by setting: (dose: 100.0 mg/kg/injection, schedule: Q01DX001 (ip), vehicle: carboxymethylcellulose (CMC)) 99 % of control; (dose: 100.0 mg/kg/injection, schedule: Q01DX009 (ip), vehicle: carboxymethylcellulose (CMC)) 95 % of control and 105 % of control; (dose: 100.0 mg/kg/injection, schedule: Q04DX002 (ip), vehicle: Klucel (hydroxypropylcellulose) (HPC)) 95 % of control; (dose: 100.0 mg/kg/injection, schedule: Q04DX002 (ip), vehicle: carboxymethylcellulose (CMC)) 106 % of control and 90 % of control; (dose: 100.0 mg/kg/injection, schedule: Q04DX003 (ip), vehicle: carboxymethylcellulose (CMC)) 97 % of control; under setting [5], 97 % of control. Further, the T/C (dose: 200.0 mg/kg/injection, schedule: Q01DX009 (ip), vehicle: carboxymethylcellulose (CMC)) was 98 % of control and 107 % of control; the T/C (dose: 200.0 mg/kg/injection, schedule: Q04DX002 (ip), vehicle: Klucel (hydroxypropylcellulose) (HPC)) was 98 % of control; the T/C (dose: 200.0 mg/kg/injection, schedule: Q04DX002 (ip), vehicle: carboxymethylcellulose (CMC)) is 93 % of control and 101 % of control; the T/C (dose: 200.0 mg/kg/injection, schedule: Q04DX003 (ip), vehicle: carboxymethylcellulose (CMC)) was 105 % of control; the T/C (dose: 400.0 mg/kg/injection, schedule: Q01DX009 (ip), vehicle: carboxymethylcellulose (CMC)) is 93 % of control and 91 % of control; the T/C (dose: 400.0 mg/kg/injection, schedule: Q04DX002 (ip), vehicle: Klucel (hydroxypropylcellulose) (HPC)) was 98 % of control. Also, the T/C was 93 % of control and 90 % of control (dose: 400.0 mg/kg/injection, schedule: Q04DX002 (ip), vehicle: carboxymethylcellulose (CMC)); 91 % of control (dose: 400.0 mg/kg/injection, schedule: Q04DX003 (ip), vehicle: carboxymethylcellulose (CMC)).
With `CC(C)=C(c1ccc(Cl)cc1)c1c(Cl)ncnc1Cl`, the T/C reads like this: under setting [2], 101 % of control; under setting [3], 102 % of control; under setting [4], 104 % of control.
Turning to `CC(=O)OC1CCC2(C)C(CCC3C2CC(=O)C2(C)C3CC(N3CC3)C2C(C)=O)C1` (stereo not drawn), the T/C reads like this: (dose: 100.0 mg/kg/injection, schedule: Q01DX001 (sc), vehicle: steriod suspending solution) 89 % of control; (dose: 200.0 mg/kg/injection, schedule: Q01DX001 (sc), vehicle: steriod suspending solution) 99 % of control; (dose: 400.0 mg/kg/injection, schedule: Q01DX001 (sc), vehicle: steriod suspending solution) 99 % of control.
As for `C/C(=C\Cl)CN(C)C`, the T/C runs as follows: under setting [2], 97 % of control; under setting [3], 94 % of control.
`COc1cc(N(CCCl)CCCl)c(OC)cc1C=Nc1cccc(F)c1`: the T/C reads like this: (dose: 12.5 mg/kg/injection, schedule: Q01DX001 (ip), vehicle: Klucel (hydroxypropylcellulose) (HPC)) 96 % of control; (dose: 13.0 mg/kg/injection, schedule: Q01DX009 (ip), vehicle: carboxymethylcellulose (CMC)) 116 % of control; under setting [6], 117 % of control; (dose: 20.0 mg/kg/injection, schedule: Q01DX009 (ip), vehicle: carboxymethylcellulose (CMC)) 120 % of control; (dose: 25.0 mg/kg/injection, schedule: Q01DX001 (ip), vehicle: Klucel (hydroxypropylcellulose) (HPC)) 101 % of control; (dose: 30.0 mg/kg/injection, schedule: Q01DX009 (ip), vehicle: carboxymethylcellulose (CMC)) 118 % of control. Moreover, the T/C is, setting by setting: (dose: 50.0 mg/kg/injection, schedule: Q01DX001 (ip), vehicle: Klucel (hydroxypropylcellulose) (HPC)) 98 % of control; (dose: 75.0 mg/kg/injection, schedule: Q01DX001 (ip), vehicle: Klucel (hydroxypropylcellulose) (HPC)) 101 % of control and 118 % of control; (dose: 177.0 mg/kg/injection, schedule: Q01DX001 (ip), vehicle: carboxymethylcellulose (CMC)) 122 % of control; under setting [5], 102 % of control; (dose: 400.0 mg/kg/injection, schedule: Q01DX001 (ip), vehicle: carboxymethylcellulose (CMC)) 153 % of control; (dose: 600.0 mg/kg/injection, schedule: Q01DX001 (ip), vehicle: carboxymethylcellulose (CMC)) 124 % of control.
For `CCC1CN2C(=N1)c1ccccc1-c1cc(Cl)ccc12` (stereo not drawn), the T/C runs as follows: (dose: 6.25 mg/kg/injection, schedule: Q01DX009 (ip), vehicle: suspension in saline) 102 % of control; (dose: 10.0 mg/kg/injection, schedule: Q01DX001 (ip), vehicle: Klucel (hydroxypropylcellulose) (HPC)) 103 % of control; (dose: 10.0 mg/kg/injection, schedule: Q01DX009 (ip), vehicle: Klucel (hydroxypropylcellulose) (HPC)) 90 % of control; (dose: 12.5 mg/kg/injection, schedule: Q01DX009 (ip), vehicle: suspension in saline) 102 % of control; under setting [6], 114 % of control; (dose: 20.0 mg/kg/injection, schedule: Q01DX009 (ip), vehicle: Klucel (hydroxypropylcellulose) (HPC)) 90 % of control. Further, the T/C is, setting by setting: (dose: 20.0 mg/kg/injection, schedule: Q01DX009 (ip), vehicle: saline) 111 % of control; (dose: 20.0 mg/kg/injection, schedule: Q04DX002 (ip), vehicle: saline) 114 % of control; (dose: 20.0 mg/kg/injection, schedule: Q04DX003 (ip), vehicle: Klucel (hydroxypropylcellulose) (HPC)) 88 % of control; (dose: 25.0 mg/kg/injection, schedule: Q01DX009 (ip), vehicle: suspension in saline) 110 % of control; (dose: 40.0 mg/kg/injection, schedule: Q01DX001 (ip), vehicle: Klucel (hydroxypropylcellulose) (HPC)) 108 % of control; (dose: 40.0 mg/kg/injection, schedule: Q04DX002 (ip), vehicle: saline) 118 % of control. Besides, the T/C reads like this: (dose: 40.0 mg/kg/injection, schedule: Q04DX003 (ip), vehicle: Klucel (hydroxypropylcellulose) (HPC)) 88 % of control; (dose: 80.0 mg/kg/injection, schedule: Q01DX009 (ip), vehicle: saline) 188 % of control; (dose: 80.0 mg/kg/injection, schedule: Q04DX002 (ip), vehicle: saline) 122 % of control.

For the origin of these results see PubChem BioAssay AID248 (DTP/NCI, 2004).
